Measured values reported in publication PMC11954145, “Antimicrobial and ADME properties of methoxylated, methylated and nitrated 2-hydroxynaphthalene-1 carboxanilides” (ADMET & DMPK, 2025).
Converted amounts (≈) assume the structure as drawn. Where two headings read alike, the source gives them in different places.

Assays:
[1] = system: Mycobacterium kansasii DSM 44162; design: method as in PMID 23924993; settings: previously published monosubstituted derivatives; cited from earlier work
[2] = Lipophilicity determination by RP-HPLC (log k, log D); format: physicochemical; settings: for log D6.5: RP-HPLC C18, MeOH 72 % / acetate-buffered saline pH 6.5; for log D7.4: RP-HPLC C18, MeOH 72 % / acetate-buffered saline pH 7.4; for log k (logarithm of the capacity factor): RP-HPLC C18, MeOH 72 % / water 28 %
Method in brief: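 Isocratic RP-HPLC on a C18 column at 40 °C, UV detection at 210 nm, dead time from KI. Log k used MeOH/H2O 72:28, log D used MeOH/acetate-buffered saline (pH 7.4 or 6.5) 72:28. k and D were calculated as (tR–tD)/tD, three replicates.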

S. aureus ATCC 29213 = assay: Antibacterial screening, broth microdilution MIC; format: cell-based; settings: Staphylococcus aureus, ATCC29213; ATCC 29213, 24 h at 37 °C; read-out: MIC S. aureus
MRSA 63718 [3] = assay: Antibacterial screening, broth microdilution MIC; format: cell-based, methicillin-resistant S. aureus; settings: Staphylococcus aureus, clinical isolate, 24 h at 37 °C, read-out: MIC MRSA 63718
MRSA SA 3202 = assay: Antibacterial screening, broth microdilution MIC; format: cell-based, methicillin-resistant S. aureus; settings: Staphylococcus aureus, clinical isolate, 24 h at 37 °C, read-out: MIC MRSA SA 3202
[4] = system: Enterococcus faecalis ATCC 29212; assay: Antibacterial screening, broth microdilution MIC; format: cell-based; settings: ATCC29212, ATCC 29212, 24 h at 37 °C, read-out: MIC E. faecalis
VRE 342B = assay: Antibacterial screening, broth microdilution MIC; format: cell-based, vancomycin-resistant E. faecalis; settings: Enterococcus, vanA isolate, 24 h at 37 °C, read-out: MIC VRE 342B
VRE 725B = assay: Antibacterial screening, broth microdilution MIC; format: cell-based, vancomycin-resistant E. faecalis; settings: Enterococcus, vanA isolate, 24 h at 37 °C, read-out: MIC VRE 725B
VRE 368 = assay: Antibacterial screening, broth microdilution MIC; format: cell-based, vancomycin-resistant E. faecalis; settings: Enterococcus, vanA isolate, 24 h at 37 °C, read-out: MIC VRE 368
E. coli ATCC 25922 = assay: Antibacterial screening, broth microdilution MIC; format: cell-based; settings: Escherichia coli, ATCC25922; ATCC 25922, 24 h at 37 °C
[5] = system: Mycobacterium tuberculosis ATCC 25177/H37Ra; assay: Antimycobacterial screening, broth dilution MIC (Alamar blue); format: cell-based; settings: 336 h, H37Ra, 14 days at 37 °C, Alamar blue, read-out: MIC M. tuberculosis
Method in brief: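 Broth microdilution in Middlebrook 7H9 with ADC, compounds twofold from 256 to 0.125 μg mL^-1, 1.5×10^6 M. tuberculosis cells per well, 14 days at 37 °C. Alamar blue was then added for 24 h. MIC is the lowest concentration preventing blue resazurin turning pink resorufin; three repeats.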

[6] = system: Mycobacterium kansasii DSM 44162; assay: Antimycobacterial screening, broth dilution MIC; format: cell-based; settings: DSM44162, 336 h, read-out: MIC M. kansasii
[7] = system: Mycobacterium smegmatis ATCC 700084; assay: Antimycobacterial screening, broth dilution MIC; format: cell-based; settings: Mycolicibacterium smegmatis, ATCC700084, 72 h; ATCC 700084, 3 days at 37 °C; read-out: MIC M. smegmatis
[8] = system: human monocytic leukemia THP-1 cells; settings: cited from earlier work
MRSA SA 630 = assay: Antibacterial screening, broth microdilution MIC; format: cell-based, methicillin-resistant S. aureus; settings: Staphylococcus aureus, clinical isolate, 24 h at 37 °C, read-out: MIC MRSA SA 630
MRSA 63718 [9] = system: MRSA 63718; design: method as in PMID 25692135; settings: cited from earlier work

Structure (SMILES) | MIC M. kansasii [1] [µM] | log D6.5 [2] | log D7.4 [2] | log k (logarithm of the capacity factor) [2] | MIC (S. aureus ATCC 29213) [µM] | MIC (MRSA 63718 [3]) [µM] | MIC (MRSA SA 3202) [µM] | MIC [4] [µM] | MIC (VRE 342B) [µM] | MIC (VRE 725B) [µM] | MIC (VRE 368) [µM] | MIC (E. coli ATCC 25922) [µM] | MIC [5] [µM] | MIC ([6]; DSM 44162, 14 days at 37 °C) [µM] | MIC [7] [µM] | CC50 [8] [µM] | MIC (MRSA SA 630) [µM] | MIC [6] [µM] | MIC of vancomycin (MRSA 63718 [9]) [µg/mL]
O=C(Nc1ccc(C(F)(F)F)cc1)c1c(O)ccc2ccccc12 [2-hydroxy-N-(4-trifluoromethylphenyl)naphthalene-1-carboxamide] | 23 (≈ 7.62 µg/mL) | – | – | – | – | – | – | – | – | – | – | – | – | – | – | – | – | – | –
O=C(Nc1ccccc1[N+](=O)[O-])c1c(O)ccc2ccccc12 [Compound 24, 2-hydroxy-N-(2-nitrophenyl)naphthalene-1-carboxamide] | – | 0.3077 | 0.3103 | 0.3033 | 26 (≈ 8.02 µg/mL) | 415 (≈ 128 µg/mL) | 51.9 (≈ 16 µg/mL) | 830 (≈ 256 µg/mL) | 830 (≈ 256 µg/mL) | 830 (≈ 256 µg/mL) | 830 (≈ 256 µg/mL) | 830 (≈ 256 µg/mL) | 104 (≈ 32.1 µg/mL) | 51.9 (≈ 16 µg/mL) | 208 (≈ 64.1 µg/mL) | > 20 | – | – | –
O=C(Nc1cccc([N+](=O)[O-])c1)c1c(O)ccc2ccccc12 [Compound 25, 2-hydroxy-N-(3-nitrophenyl)naphthalene-1-carboxamide] | – | 0.3462 | 0.3058 | 0.4882 | 208 (≈ 64.1 µg/mL) | 26 (≈ 8.02 µg/mL) | 208 (≈ 64.1 µg/mL) | 830 (≈ 256 µg/mL) | 830 (≈ 256 µg/mL) | 830 (≈ 256 µg/mL) | 830 (≈ 256 µg/mL) | 830 (≈ 256 µg/mL) | 104 (≈ 32.1 µg/mL) | – | 208 (≈ 64.1 µg/mL) | > 20 | 208 (≈ 64.1 µg/mL) | 104 (≈ 32.1 µg/mL) | –
O=C(Nc1ccc(Br)cc1)c1c(O)ccc2ccccc12 [N-(4-bromophenyl)-2-hydroxynaphthalene-1-carboxamide] | 93 (≈ 31.8 µg/mL) | – | – | – | – | – | – | – | – | – | – | – | – | – | – | – | – | – | –
CN[C@H](CC(C)C)C(=O)N[C@H]1C(=O)N[C@@H](CC(N)=O)C(=O)N[C@H]2C(=O)N[C@H]3C(=O)N[C@H](C(=O)N[C@H](C(=O)O)c4cc(O)cc(O)c4-c4cc3ccc4O)[C@H](O)c3ccc(c(Cl)c3)Oc3cc2cc(c3O[C@@H]2O[C@H](CO)[C@@H](O)[C@H](O)[C@H]2O[C@H]2C[C@](C)(N)[C@H](O)[C@H](C)O2)Oc2ccc(cc2Cl)[C@H]1O [vancomycin] | – | – | – | – | – | – | – | – | – | – | – | – | – | – | – | – | – | – | 2
